Read-outs that look alike come from different tables or passages of the source. Peptide text beside a SMILES is read from it.

These results are taken from PMC6628374, “Preparation and Identification of Novel Antihypertensive Peptides from the In Vitro Gastrointestinal Digestion of Marine Cobia Skin Hydrolysates” (Nutrients, 2019).

Series [1] relates to ACE. Particulars: cited from earlier work.
Series [2] deals with angiotensin I-converting enzyme (rabbit lung ACE) (rabbit) (UniProt P12822).
For series [3] the target is unchanged. The source holds these as a separate data set.
Series [4] has as its target T1, Rabbit lung ACE (Oryctolagus cuniculus, UniProt P12822).
T1 construct: Enzymes including pepsin, pancreatin and rabbit lung ACE were purchased from Sigma Chemical Co; purchased Sigma Chemical Co. (St. Louis, MO, USA); host or cells: rabbit lung (tissue-derived)
T1 sequence (P12822 34-1310): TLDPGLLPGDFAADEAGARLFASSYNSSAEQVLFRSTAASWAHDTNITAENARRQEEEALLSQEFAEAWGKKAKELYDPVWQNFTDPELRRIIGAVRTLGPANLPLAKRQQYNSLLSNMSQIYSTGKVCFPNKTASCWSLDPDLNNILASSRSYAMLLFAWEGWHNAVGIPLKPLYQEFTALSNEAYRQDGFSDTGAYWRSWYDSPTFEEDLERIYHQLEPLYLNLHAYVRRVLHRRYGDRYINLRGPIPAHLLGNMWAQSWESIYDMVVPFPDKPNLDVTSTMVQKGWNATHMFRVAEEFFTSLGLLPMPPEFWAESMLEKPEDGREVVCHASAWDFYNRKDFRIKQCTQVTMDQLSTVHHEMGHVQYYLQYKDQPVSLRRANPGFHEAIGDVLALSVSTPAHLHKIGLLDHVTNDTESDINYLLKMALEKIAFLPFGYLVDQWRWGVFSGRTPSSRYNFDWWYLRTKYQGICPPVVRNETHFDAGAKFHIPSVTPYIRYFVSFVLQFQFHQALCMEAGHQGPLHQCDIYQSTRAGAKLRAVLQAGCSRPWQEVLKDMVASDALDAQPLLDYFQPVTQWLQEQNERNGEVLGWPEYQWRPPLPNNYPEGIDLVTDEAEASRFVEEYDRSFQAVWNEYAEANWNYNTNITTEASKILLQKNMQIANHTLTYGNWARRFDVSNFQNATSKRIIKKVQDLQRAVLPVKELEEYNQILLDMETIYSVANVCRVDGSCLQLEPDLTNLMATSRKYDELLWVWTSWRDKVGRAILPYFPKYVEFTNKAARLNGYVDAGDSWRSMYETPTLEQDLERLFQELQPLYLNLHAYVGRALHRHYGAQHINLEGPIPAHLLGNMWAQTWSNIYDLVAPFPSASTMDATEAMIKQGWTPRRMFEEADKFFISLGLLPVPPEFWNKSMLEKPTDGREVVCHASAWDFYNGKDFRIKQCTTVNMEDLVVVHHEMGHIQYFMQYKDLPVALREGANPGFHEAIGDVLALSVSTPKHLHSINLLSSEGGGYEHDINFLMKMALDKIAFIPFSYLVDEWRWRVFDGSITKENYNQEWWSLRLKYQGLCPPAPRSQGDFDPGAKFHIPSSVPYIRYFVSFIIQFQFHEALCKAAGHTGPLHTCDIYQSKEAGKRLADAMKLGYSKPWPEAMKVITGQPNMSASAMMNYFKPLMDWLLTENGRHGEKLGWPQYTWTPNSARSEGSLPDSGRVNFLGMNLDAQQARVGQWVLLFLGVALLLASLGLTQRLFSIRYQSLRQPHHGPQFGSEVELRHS
In words: ACE inhibition assay (RP-HPLC, HHL substrate). The class given is biochemical. The following applies: for Inhibition (%): at the peak's own peptide concentration; for IC50: identified peptides of peaks E6 to E9. Here is the method: RP-HPLC was used to measure ACE inhibition by means of a method devised by Cushman and Cheung. The sample consisted of 15 mM HHL in Na-borate buffer (100 mM, pH 8.3) plus NaCl (300 mM). […] Equal volumes (75 μL) of the ACE solution and samples passed through a 5-kDa MWCO membrane were then incubated for 10 min at 37 °C. […] of the solution of HHL was then added and incubation was continued for a further 30 min. 1.0 N HCl (250 μL) was used to stop the reaction and 10 μL was injected into a Luna C18 column. […] Finally, inhibition activity was calculated using the following formula:Inhibition activity (%) = ((Ec - Es) / (Ec - Eb)) × 100where Ec is the absorbance when the buffer was added as control, Es is the absorbance when the sample was added to the reaction mixture (sample), and Eb is the absorbance when the stop solution was added before the reaction occurred (blank). […] The data used in this study were all averages of three readings or standard deviations (SDs).

Details of series [5]: method as in doi:10.1016/j.idairyj.2015.09.004. Particulars: human volunteers, 100 mg oral, after 30 min; cited from earlier work.
For series [6], the system named is ACE activity in plasma. More on the design: method as in doi:10.1016/j.idairyj.2015.09.004. The following applies: human volunteers, 100 mg oral, at 1.5 h; cited from earlier work.
The mark [7] stands for this setting: peptides from Pacific cod skin gelatin hydrolysates (<1 kDa).
Where [8] appears, read: dipeptides from salmon muscle hydrolysate.
Setting [9] is: RP-HPLC peaks of fraction E from PX-5G.
Where [10] appears, read: equivalent of the μM value, read-out: IC50 (mg/mL) (converted).

On to L-A-Y-A, for which, in series [1] (setting [7]), the IC50 was 14.5 µM.

Compound Trp-Ala-Ala (peptide) displayed an Inhibition (%) of ACE enzyme activity by peak E6 at 0.048 mg/mL peptide in series [2] of 41.9%. Further, the IC50 of inhibition of ACE enzyme activity (hippuric acid released from HHL, RP-HPLC, 37 °C, pH 8.3) in series [3] was 118 μM.

With G-A-S-S-G-M-P-G (GASSGMPG), the IC50 in series [1] (setting [7]) is 6.9 µM.

On to Trp-Met, for which the IC50 in series [1] (setting [8]) is 98.6 µM.

Regarding Trp-Leu (peptide), in series [2], the Inhibition (%) of ACE enzyme activity by peak E9 at 0.014 mg/mL peptide was found to be 42.3%. For the same compound, in series [3], the IC50 of inhibition of ACE enzyme activity (hippuric acid released from HHL, RP-HPLC, 37 °C, pH 8.3) was determined as 26.8 μM.

For the compound Ile-Trp-Trp (peptide), the Inhibition (%) of ACE enzyme activity by peak E8 at 0.028 mg/mL peptide in series [2] amounted to 93.4%. Further, the IC50 of inhibition of ACE enzyme activity (hippuric acid released from HHL, RP-HPLC, 37 °C, pH 8.3) in series [3] is 0.51 μM.

As for `C[C@H](NC(=O)[C@H](C)NC(=O)[C@@H](N)Cc1c[nH]c2ccccc12)C(=O)O` [Peak E6, Trp-Ala-Ala] (H-Trp-Ala-Ala-OH), in series [4] (setting [9]), the “Inhibition (%)” value amounted to 41.9%. Further, the IC50 is 119 µM in series [4] (setting [10]) and 118 ± 2.8 µM in series [4] (read-out: IC50).

As to `C[C@H](N)C(=O)N[C@@H](Cc1c[nH]c2ccccc12)C(=O)N[C@@H](Cc1c[nH]c2ccccc12)C(=O)O` [Peak E7, Ala-Trp-Trp] (H-Ala-Trp-Trp-OH), in series [4] (setting [9]), the “Inhibition (%)” value turned out to be 81.1%. Besides, the IC50 in series [4] (setting [10]) was 9.4 µM; in series [4] (read-out: IC50), 9.4 ± 0.6 µM.

Consider `CC(C)C[C@H](NC(=O)[C@@H](N)Cc1c[nH]c2ccccc12)C(=O)O` [Peak E9, Trp-Leu] (H-Trp-Leu-OH; N-terminus and C-terminus assumed), for which, in series [5], the maximum plasma concentration was 29 to 36 pmol/mL. In series [4] (setting [9]), the “IER (inhibitory efficiency ratio)” value was found to be 3021.4 %/mg/mL and the “Inhibition (%)” value came out at 42.3%. In addition, in series [4] (setting [10]), the IC50 was 26.8 µM. Also, the IC50 in series [4] (read-out: IC50) turned out to be 26.8 ± 0.9 µM. Moreover, the “decrease of ACE activity in plasma” value in series [6] is recorded as 16–22%. Besides, in series [1], the ACE-inhibition mode entry was “noncompetitive inhibitors” and the IC50 is 29.9 to 34.1 µM.

Leu-Trp: in series [1], the ACE-inhibition mode entry is given as “noncompetitive inhibitors”.

As for G–R-G-S–V-P–A–Hyp–G-P, the IC50 in series [1] (peptide from squid skin collagen hydrolysate fraction <1 kDa) is 47.8 µM.

Met-Trp: the IC50 in series [1] (setting [8]) is 9.8 µM.

Turning to `CC[C@H](C)[C@H](N)C(=O)N[C@@H](Cc1c[nH]c2ccccc12)C(=O)N[C@@H](Cc1c[nH]c2ccccc12)C(=O)O` [Peak E8, Ile-Trp-Trp] (H-Ile-Trp-Trp-OH), in series [4] (setting [9]), the “Inhibition (%)” value is listed as 93.4%. Moreover, the IC50 is 0.516 µM in series [4] (setting [10]) and 0.51 ± 0.1 µM in series [4] (read-out: IC50).

On to Ala-Trp-Trp (peptide), for which the Inhibition (%) of ACE enzyme activity by peak E7 at 0.058 mg/mL peptide in series [2] was found to be 81.1%. Besides, the IC50 of inhibition of ACE enzyme activity (hippuric acid released from HHL, RP-HPLC, 37 °C, pH 8.3) in series [3] worked out at 9.4 μM.

“Val-Arg-Tyr-Leu (VRYL; printed: Val-Arg-Tyr-Leu)”: in series [1] (peptide from Manchego cheese), the “IC50 before hydrolysis with gastrointestinal proteases” value is 9 µg/mL.
